Data published in patent publication US6359168B1, “Compounds derived from menthol and use as refreshing agent” (Firmenich SA, priority 1998, dated 2002).

Experiments:
Assay type in all cases: in vivo, human
[1] = system: expert flavourists; test: Gelatin-based grapefruit confectioneries compared by expert flavourists under blind conditions; conditions: 0.05% by weight in gelatin-based grapefruit confectionery
Procedure: By a method which is known per se, grapefruit-flavoured confectioneries were prepared from 30 g gelatin, 175 g water, 150 g sugar and 200 g glucose. We then added 0.8% citric acid and 0.08% of a grapefruit flavouring of the formula given in Example 6. Under blind conditions, expert flavourists then compared this base preserve, without any additives, with preserve of the same composition to which certain compounds according to the invention had been added.

[2] = system: expert tasters; test: Chewing gum compared by expert tasters under blind conditions; conditions: 0.4 parts by weight in chewing gum
Procedure: Chewing gum was prepared from a Cafosa Navada Plus T 413-01chewing-gum base (18 parts by weight) (source: Cafosa Gum Products Technology, Barcelona, Spain), sugar (60 parts by weight, glucose (20 parts by weight) and glycerol (0.5 parts by weight). 0.8 parts by weight of citric acid and 1 part by weight of lemon flavouring according to the formula given in Example 8 were then added to this mixture. Under blind conditions, expert tasters then compared this chewing-gum base, without any additives, with chewing gums of the same composition to which certain compounds according to the invention had been added.

[3] = system: buccal mucosae; test: Taste and cooling effect of the compound when tasted
[4] = system: expert flavourists; test: Grapefruit-flavoured sweets compared by expert flavourists under blind conditions; conditions: 0.05% in grapefruit-flavoured sweets
Procedure: Grapefruit-flavoured sweets were prepared from boiled sugar, 1% citric acid, and 0.05% of a grapefruit flavouring of the following formula: Under blind conditions, expert flavourists then compared these sweets, without any additives, with sweets of the same composition to which certain compounds according to the invention had been added.

[5] = system: expert flavourists; test: Lemon sorbets compared by expert flavourists under blind conditions; conditions: 0.05% by weight in lemon sorbet
Procedure: Lemon sorbets were prepared from the following ingredients using conventional techniques: 0.5% citric acid and 0.01% of lemon flavouring of the following formula were then added: Under blind conditions, expert flavourists then compared this lemon sorbet, without any additives, with sorbets of the same composition to which certain compounds according to the invention had been added.

[6] = system: expert tasters; test: Orange drink compared by expert tasters under blind conditions; conditions: 0.003% in orange drink
Procedure: An orange-flavoured drink was prepared from a 65° Brix syrup which had been diluted to 10%, acidified with 1.5% citric acid and then flavoured with 0.01% of an orange flavouring of the following formula: Under blind conditions, expert tasters then compared this base drink, without any additives, with drinks of the same composition to which certain compounds according to the invention had been added.

Row | Compound | freshness [1] | freshness [2] | cooling effect [3] | freshness [4] | freshness [5] | freshness [6]
1 | COCCOCC(=O)O[C@@H]1C[C@H](C)CC[C@H]1C(C)C [(1R,2S,5R)-3-menthyl 3,6-dioxaheptanoate] | the same freshness effect | prolonged freshness |  |  |  | 
2 | CC(C)[C@@H]1CC[C@@H](C)C[C@H]1OC(=O)COCCO [(1R,2S,5R)-3-menthyl (2-hydroxyethoxy)acetate] |  |  | immediately and intensely cooling |  |  | 
3 | COCC(=O)O[C@@H]1C[C@H](C)CC[C@H]1C(C)C [(1R,2S,5R)-3-menthyl methoxyacetate, (1R,2S,5R)-3-methyl methoxyacetate] | leaves a freshness in the mouth | prolonged freshness |  | yielded a freshness | pleasant freshness in the mouth | sensation of freshness which develops as an after-taste
4 | CC(C)[C@@H]1CC[C@@H](C)C[C@H]1OC(=O)COCCOCCOCCO [(1R,2S,5R)-menthyl 11-hydroxy-3,6,9-trioxaundecanoate] |  |  | develops more particularly on the tongue and in the throat |  |  | 
